# Assay results as given in patent US8859496B2, “Pharmaceutical composition using connective-tissue growth factor” (Postech Academy-Industry Foundation, priority 2010, dated 2014).
# No end group written: not given here.
# What was measured:
# [1] = test system: HUVECs; test: ERK phosphorylation in HUVECs (immunoblot); assay type: cell-based, human
# Method: Vector/RBL cells, FPR/RBL cells, FPRL1/RBL cells, and HUVECs were cultured to confluence, and serum-starved. The stimulated cells (1×10^5 cells) were washed with PBS twice, dissolved in 1 ml of sample buffer (50 mM Tris-HCl, 100 mM NaCl, 0.1% SDS, 1% Nonidet P-40, 50 mM NaF, 1 mM Na3VO4, 1 μg/ml aprotinin, 1 μg/ml pepstatin, and 1 μg/ml leupeptin), heated at 95° C. for 30 seconds, separated with SDS-PAGE, and then, transferred to a nitrocellulose film. Immunoblot was conducted using anti-phospho-ERK (extracellular signal regulated kinase)1/2 (Thr^202/Tyr^204)(Cell Signaling Technology, Beverly, Mass., USA), anti-ERK1/2 (Cell Signaling Technology, Beverly, Mass., USA), anti-CTGF (Abcam, Cambridge, Mass., USA), anti-Actin (Sigma, St. Louis, Mo., USA), or anti-Flag (Sigma, St. Louis, Mo., USA) antibody, and then, the film was visualized with a chemiluminescence substrate (Amersham Pharmacia).
# Meanwhile, HUVECs were treated with the CTGF linker polypeptide or rhCTGF at various concentrations for 5 minutes, cell lysate was obtained, and then, immuboblot was conducted with anti-phospho ERK1/2 antibody, and the results are shown in FIG. 14.
# [2] = test system: CAM (chorioallantoic membrane); test: In vivo CAM (chorioallantoic membrane) angiogenesis analysis
# Method: In vivo CAM analysis was conducted according to a previously known method (Lee, M.-S. et al. Angiogenic Activity of Pyruvic Acid in in Vivo and in Vitro Angiogenesis Models. Cancer Res 61, 3290-3293, 2001).
# Fertilized eggs were cultured in an egg breeder set to fixed moisture at 37° C. 3 days after the culture, to take off expressed CAM from the shell, about 2 ml of egg albumin was taken out with 18-gague subcutaneous needle. After additionally culturing for 6 days, thermanox coverslips (Nunc) containing the sample was dried in the air, and applied to the CAM surface to test the activity of angiogenesis by linker polypeptide or rhCTGF. After 3 days, 1-2 ml of 10% (w/v) Intralipose was injected into chorioallantois, and observed with microscope.
# And, it was confirmed by the <Experiment method 10> that in case HUVECs are treated with FPRL1 antagonist (10 ug/CAM) in vivo, angiogenesis activity of VEGF-A (25 ng/CAM) is inhibited, and the results are shown in FIG. 28.
Substance,"ERK phosphorylation in HUVECs ([1]; various concentrations, 5 minutes)","angiogenesis in vivo (CAM) ([2]; sample on coverslip on CAM, 3 days)",effect of antagonist on ERK phosphorylation in HUVECs ([1]; WRW4 10 uM),"effect of antagonist on CAM angiogenesis induced by VEGF-A ([2]; FPRL1 antagonist 10 ug/CAM, VEGF-A 25 ng/CAM)",effect of antagonist on CAM blood vessel formation induced by CTGF linker polypeptide ([2]; WRW4 10 uM)
EWVCDEPKDQTVVGPALAAYRLEDTFGPDPTMIRANCLV (EWVCDEPKDQTVVGPALAAYRLEDTFGPDPTMIRANCLV-NH2; cysteine pairing not given here) [CTGF linker polypeptide],ERK phosphorylation is effectively induced,very strongly induces angiogenesis also in vivo in a concentration-dependent manner,,,
WRWWWW (FPRL1 antagonist) [WRW4],,,ERK phosphorylation is inhibited,strongly inhibits angiogenesis induced by VEGF-A,the blood vessel formation is not induced
